In PubChem BioAssay AID1259411 (Chemical Carcinogenesis Research Information System (CCRIS), 2018):
Activity calls are given as the source filed them. How the calls were made is not given here.

System: rodent carcinogenicity bioassays, tumor incidence
Experiment: CCRIS carcinogenicity studies
Method in brief: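 Archive of carcinogenicity, mutagenicity, tumor promotion and tumor inhibition results drawn from journals, NCI reports and other sources, expert-reviewed; covers 1985-2011 and is no longer updated.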

Nc1ccc(Cl)cc1N
carcinogen call (Species: MOUSE, Strain/Sex: B6C3F1/FEMALE, Route: ORAL, Dose: 0, 0.7, 1.4% TWA, IN DIET FOR 78 WK (STUDY DURATION: 96-97 WK), Dose: 0, 0.7, 1.4% TWA, IN DIET FOR 78 WK (STUDY DURATION: 96-97 WK), Tumor Site: Type of Lesion: LIVER: HEPATOCELLULAR CARCINOMA, HEPATOCELLULAR ADENOMA OR CARCINOMA): active; positive | carcinogen call (Species: MOUSE, Strain/Sex: B6C3F1/MALE, Route: ORAL, Dose: 0, 0.7, 1.4% TWA, IN DIET FOR 78 WK (STUDY DURATION: 95-97 WK), Dose: 0, 0.7, 1.4% TWA, IN DIET FOR 78 WK (STUDY DURATION: 95-97 WK), Tumor Site: Type of Lesion: LIVER: HEPATOCELLULAR CARCINOMA, HEPATOCELLULAR ADENOMA OR CARCINOMA): active; positive | carcinogen call (Species: RAT, Strain/Sex: F344/FEMALE, Route: ORAL, Dose: 0, 0.5, 1.0% IN DIET FOR 78 WK (STUDY DURATION: 106 WK), Dose: 0, 0.5, 1.0% IN DIET FOR 78 WK (STUDY DURATION: 106 WK), Tumor Site: Type of Lesion: URINARY BLADDER: PAPILLARY CARCINOMA OR TRANSITIONAL CELL CARCINOMA, PAPILLARY CARCINOMA OR TRANSITIONAL CELL CARCINOMA): active; positive | carcinogen call (Species: RAT, Strain/Sex: F344/MALE, Route: ORAL, Dose: 0, 0.5, 1.0% IN DIET FOR 78 WK (STUDY DURATION: 105-106 WK), Dose: 0, 0.5, 1.0% IN DIET FOR 78 WK (STUDY DURATION: 105-106 WK), Tumor Site: Type of Lesion: URINARY BLADDER: TRANSITIONAL CELL CARCINOMA, PAPILLOMA (NOS) OR TRANSITIONAL CELL PAPILLOMA OR TRANSITIONAL CELL CARCIN): active; positive

NNCCc1ccccc1
carcinogen call (Species: MOUSE, Strain/Sex: SWISS/MALE, Route: ORAL, Dose: 0, 0.15% IN WATER, Tumor Site: Type of Lesion: BLOOD VESSELS: ANGIOMA, ANGIOSARCOMA, LUNG: ADENOMA, ADENOCARCINOMA): active; positive | carcinogen call (Species: RAT, Strain/Sex: SPRAGUE-DAWLEY/MALE, Route: ORAL, Dose: 0, 0.02% IN DIET FOR 68-87 WK (STUDY DURATION: 87 WK)): inactive; negative

Nc1cccc(N)c1
carcinogen call (Species: MOUSE, Strain/Sex: B6C3F1/FEMALE, Route: ORAL, Dose: 0, 0.02, 0.04% IN DRINKING WATER FOR 78 WK, TOTAL INTAKE 13.0, 22.9 G/KG (STUDY DURATION: 85 WK), Dose: 0, 0.02, 0.04% IN DRINKING WATER FOR 78 WK, TOTAL INTAKE 13.0, 22.9 G/KG (STUDY DURATION: 85 WK)): inactive; negative | carcinogen call (Species: MOUSE, Strain/Sex: B6C3F1/MALE, Route: ORAL, Dose: 0, 0.02, 0.04% IN THE DRINKING WATER FOR 78 WK, TOTAL INTAKE 10.9, 21.0 G/KG BODY WEIGHT (STUDY DURATION: 85 WK), Dose: 0, 0.02, 0.04% IN THE DRINKING WATER FOR 78 WK, TOTAL INTAKE 10.9, 21.0 G/KG BODY WEIGHT (STUDY DURATION: 85 WK)): inactive; negative

COc1cc2c(c3oc(=O)c4c(c13)CC[C@@H]4O)[C@@H]1C=CO[C@@H]1O2
carcinogen call (Species: FISH, Strain/Sex: SHASTA RAINBOW TROUT/MALE, FEMALE, Route: IMMERSION, Dose: 0, 0.01, 0.025, 0.05, 0.1, 0.25, 0.5 PPM SOLUTION IN WATER FOR 1 HR EXPOSURE OF EMBRYOS (STUDY DURATION: 13 MO), Dose: 0, 0.01, 0.025, 0.05, 0.1, 0.25, 0.5 PPM SOLUTION IN WATER FOR 1 HR EXPOSURE OF EMBRYOS (STUDY DURATION: 13 MO), Tumor Site: Type of Lesion: LIVER: TUMORS): active; positive | carcinogen call (Species: FISH, Strain/Sex: SHASTA RAINBOW TROUT/MALE, FEMALE, Route: ORAL, Dose: 0, 4, 8, 16, 32, 64 PPB IN DIET FOR 2 WK FOLLOWED BY CONTROL DIET FOR THE DURATION OF STUDY (STUDY DURATION: 9 MO), Dose: 0, 4, 8, 16, 32, 64 PPB IN DIET FOR 2 WK FOLLOWED BY CONTROL DIET FOR THE DURATION OF STUDY (STUDY DURATION: 9 MO), Tumor Site: Type of Lesion: LIVER: TUMOR): active; positive | carcinogen call (Species: RAT, Strain/Sex: F344/MALE, Route: ORAL, Dose: 50, 200 PPB IN DIET 2/WK FOR 12 MO, Tumor Site: Type of Lesion: LIVER: HEPATOCELLULAR CARCINOMA): active; positive | carcinogen call (Species: TROUT, Strain/Sex: MT. SHASTA RAINBOW, Route: ORAL, Dose: 29 PPB IN DIET FOR 12 MO, Tumor Site: Type of Lesion: LIVER: HEPATOCELLULAR CARCINOMA): active; positive

Nc1ccc(/C=C/c2ccc(N)c(S(=O)(=O)O)c2)c(S(=O)(=O)O)c1
carcinogen call (Species: MOUSE, Strain/Sex: B6C3F1/FEMALE, Route: ORAL, Dose: 0, 6250, 12500 PPM IN DIET FOR 103 WK (STUDY DURATION: 2 YR), Dose: 0, 6250, 12500 PPM IN DIET FOR 103 WK (STUDY DURATION: 2 YR)): inactive; negative | carcinogen call (Species: MOUSE, Strain/Sex: B6C3F1/MALE, Route: ORAL, Dose: 0, 6250, 12500 PPM IN DIET FOR 103 WK (STUDY DURATION: 2 YR), Dose: 0, 6250, 12500 PPM IN DIET FOR 103 WK (STUDY DURATION: 2 YR)): inactive; negative | carcinogen call (Species: RAT, Strain/Sex: F344/FEMALE, Route: ORAL, Dose: 0, 12500, 25000 PPM IN DIET FOR 103 WK (STUDY DURATION: 2 YR), Dose: 0, 12500, 25000 PPM IN DIET FOR 103 WK (STUDY DURATION: 2 YR)): inactive; negative | carcinogen call (Species: RAT, Strain/Sex: F344/MALE, Route: ORAL, Dose: 0, 12500, 25000 PPM IN DIET FOR 103 WK (STUDY DURATION: 2 YR), Dose: 0, 12500, 25000 PPM IN DIET FOR 103 WK (STUDY DURATION: 2 YR)): inactive; negative

CN(C)N
carcinogen call (Species: HAMSTER, Strain/Sex: SYRIAN/FEMALE, Route: SUBCUTANEOUS, Dose: 0, 8, 17, 35 MG/KG BW IN 0.9% SALINE 1/WK FOR LIFE (STUDY DURATION: LIFE SPAN), Dose: 0, 8, 17, 35 MG/KG BW IN 0.9% SALINE 1/WK FOR LIFE (STUDY DURATION: LIFE SPAN)): inactive; negative | carcinogen call (Species: HAMSTER, Strain/Sex: SYRIAN/MALE, Route: SUBCUTANEOUS, Dose: 0, 8, 17, 35 MG/KG BW IN 0.9% SALINE 1/WK FOR LIFE (STUDY DURATION: LIFE SPAN), Dose: 0, 8, 17, 35 MG/KG BW IN 0.9% SALINE 1/WK FOR LIFE (STUDY DURATION: LIFE SPAN)): inactive; negative | carcinogen call (Species: MOUSE, Route: ORAL, Tumor Site: Type of Lesion: LUNG, BLOOD VESSELS, LIVER, KIDNEY, Tumor Site: Type of Lesion: LUNG, BLOOD VESSELS, LIVER, KIDNEY): active; positive

O=c1cc[nH]c(=O)[nH]1
carcinogen call (Species: MOUSE, Strain/Sex: B6C3F1/FEMALE, Route: ORAL, Dose: 0, 3% IN DIET FOR WK 1-6 OF STUDY THEN 0, 2.5% IN DIET FOR WK 7-96 (STUDY DURATION: 96 WK), Dose: 0, 3% IN DIET FOR WK 1-6 OF STUDY THEN 0, 2.5% IN DIET FOR WK 7-96 (STUDY DURATION: 96 WK), Tumor Site: Type of Lesion: URINARY BLADDER: TRANSITIONAL CELL CARCINOMA): active; positive | carcinogen call (Species: MOUSE, Strain/Sex: B6C3F1/MALE, Route: ORAL, Dose: 0, 3% IN DIET FOR WK 1-6 OF STUDY THEN 0, 2.5% IN DIET FOR WK 7-96 (STUDY DURATION: 96 WK), Dose: 0, 3% IN DIET FOR WK 1-6 OF STUDY THEN 0, 2.5% IN DIET FOR WK 7-96 (STUDY DURATION: 96 WK)): inactive; negative | carcinogen call (Species: RAT, Strain/Sex: F344/FEMALE, Route: ORAL, Dose: 0, 3% IN DIET FOR 104 WK (STUDY DURATION: 104 WK), Tumor Site: Type of Lesion: URINARY BLADDER: TRANSITIONAL CELL CARCINOMA): active; positive | carcinogen call (Species: RAT, Strain/Sex: F344/MALE, Route: ORAL, Dose: 0, 3% IN DIET FOR 104 WK (STUDY DURATION: 104 WK), Tumor Site: Type of Lesion: URINARY BLADDER: TRANSITIONAL CELL PAPILLOMA, TRANSITIONAL CELL CARCINOMA, RENAL PELVIS: PAPILLOMA, CARCINOMA): active; positive

CC1CC(=O)O1 (stereo not drawn)
carcinogen call (Species: MOUSE, Route: DERMAL, Tumor Site: Type of Lesion: INTEGUMENTARY SYSTEM (SKIN)): active; positive | carcinogen call (Species: MOUSE, Route: SUBCUTANEOUS, Tumor Site: Type of Lesion: INJECTION SITE): active; positive | carcinogen call (Species: RAT, Route: GAVAGE, Tumor Site: Type of Lesion: FORESTOMACH): active; positive | carcinogen call (Species: RAT, Route: SUBCUTANEOUS, Tumor Site: Type of Lesion: INJECTION SITE): active; positive

O=NC(=O)CCNCCO
carcinogen call (Species: RAT, Strain/Sex: F344/FEMALE, Route: ORAL, Dose: 0, 50 MG/L DRINKING WATER 5 D/WK FOR 50 WK (TOTAL DOSE 250 MG) (STUDY DURATION: LIFESPAN), Tumor Site: Type of Lesion: ESOPHAGUS: CARCINOMA, PAPILLOMA, TONGUE: CARCINOMA, PAPILLOMA): active; positive
